From patent publication EP2674155B1, “Association of resveratrol and carboxymethylglucan” (priority 2012, dated 2013)

Columns and labels:
[1] = Solubility of resveratrol in buffered aqueous solution in presence of CMG, determined by HPLC; assay type: physicochemical
Experimental: (§1) The chromatographic method devised for determining resveratrol provides the use of a HPLC Waters system constituted by a pump, 600 model, by a Waters self-sampler mod. 717 and by a UV-Visible Photodiode array detector mod 2996. The system is handled by the Millenium^32 software. The used chromatographic column is a Symmetry C-18 with length of 15 cm, associated to a specific pre-column of same material with length of 1 cm. The elution is performed under isocratic conditions by using the following mixtures: • 1) 30% [Acetic acid 0.1 % in methanol] e 70% [Acetic acid 0.1 % in water] • 2) 80% [Acetic acid 10% in water] and 20% [Acetonitrile]. For the measurements 50 µL of sample are taken, diluted in 500µL of mobile phase and an aliquot of 50µL is injected in HPLC.
The solutions of CMG and resveratrol have always been prepared in a buffered, isotonic, physiological pH-containing aqueous solution, constituted by: • dipotassium phosphate 0.74% • sodium chloride 0.42% • potassium phosphate 0.175%
All solutions were cold-prepared and without using any organic solvent.
In order to evaluate the solubility, with consequent effect on the bioavailability thereof, formulations were prepared containing resveratrol in association with CMG at increasing concentrations (from 0.5 mg/ml to 10 mg/ml) in a ratio 1:1, in an aqueous solution of the above-mentioned composition. […]

[2] = Stability over time of resveratrol in aqueous solution (25°C, closed, protected from light), HPLC; assay type: physicochemical; conditions: resveratrol alone 0.03 mg/ml
Experimental: as §1
The examined concentration of the solution of resveratrol was 0.03 mg/ml, corresponding to the maximum quantity which can be solubilized in water of the original product. […] The two solutions were kept under the same conditions described above for the solution of resveratrol only and they were evaluated in different moments as from the time of the preparation thereof. […]

VERO cellular line = test: Cellular metabolic activity, MTT assay; assay type: cell-based; conditions: VERO cells, resveratrol 0.5 mg/ml (2.2 mM), 6 hours after exposition, versus not treated cells (CTRL)
Experimental: The cellular metabolic activity is evaluated on VERO cellular line, by means of MTT cellular proliferation assay (3-(4,5-dimethylthiazole-2-il)-2,5-diphenyltetrazolium bromide). The test with MTT is a simple method for determining the metabolic activation of the cells and it is based upon the action of the mitochondrial enzyme succinate dehydrogenase reducing the tetrazolium salts in crystals of a bluish product called formazan. Therefore the reaction can take place only in the metabolically active cells and the value of optical density (O.D.), obtained by means of spectrophotometric reading, can be correlated to the quantity of existing vital cells.
Upon considering the application of the association CMG-resveratrol for the formulation of pharmaceutical products, dietary supplies, medical devices, cosmetic products, functional pieces of food, veterinary products, with consequent interaction with the biological systems of men and animals in general, even the possible cytotoxycity was evaluated. In particular tests of cellular metabolic activity in presence of resveratrol and CMG on VERO cellular line were performed. […]
6 hours after exposition to these substances MTT colouring agent was added, then the formazan produced by the metabolically active cells was extracted with isopropanol and the optical density measured at 570 nm by subtracting the reference value at 690 nm. […]

[3] = assay type: physicochemical
Experimental: The solubility of triacetyl-resveratrol and of trimethylether of resveratrol in an aqueous solution (of the same composition described in example 1) in presence of CMG was evaluated. In particular, the solubility in aqueous phase of triacetyl-resveratrol and of trimethyl ether of resveratrol was evaluated at first and this value was considered unitary.

SMILES | concentration of CMG from which highly solubilizing action on resveratrol is confirmed [1] [µg/mL] | solubilization higher than what reported in literature [1] | stability of resveratrol in buffer solution ([2]; after 2 months) | stability of resveratrol in buffer solution ([2]; after 7 months) | reduction in the cellular metabolic activity (VERO cellular line) [%] | increase of solubility in presence of CMG, relative to solubility of the pure compound considered unitary [3]
Oc1ccc(C=Cc2cc(O)cc(O)c2)cc1 [resveratrol, 3,4',5-trihydroxystilbene] | ≥ 250 | at least 100 times | strong degradation | no more detected | 20 | –
CC(=O)Oc1ccc(/C=C/c2cc(OC(C)=O)cc(OC(C)=O)c2)cc1 [triacetylresveratrol, triacetyl-resveratrol] | – | – | – | – | – | more than one and a half time
COc1ccc(/C=C/c2cc(OC)cc(OC)c2)cc1 [trimethylether of resveratrol] | – | – | – | – | – | three times
